Tested on: activated CD4+ T cells from MA10-infected HLA-DRB1*0101 Ifnar1^−/− mice
Format: cell-based

Sequence | frequency of IFNγ-producing activated CD4+ T cells compared with unstimulated control cells | expansion of multifunctional IFNγ+/TNF+ CD4+ T cells
RWYFYYLGTGPEAGL (misc_feature - Nucleoprotein; Severe acute respiratory syndrome-related coronavirus) [N107-121] | increase was significant | –
VLSFELLHAPATVCG [S512-526] | – | capable of expanding
LNTLVKQLSSNFGAI [S959-973] | increase was significant | –
TSNFRVQPTESIVRF [S315-329] | – | capable of expanding
GTWLTYTGAIKLDDK (misc_feature - Nucleoprotein; Severe acute respiratory syndrome-related coronavirus) [N328-342] | – | capable of expanding

Reference: patent publication US20240400620A1, “Compositions Containing Coronavirus Proteins and Epitopes” (priority 2021, published 2024)
